Laboratory results as given in US10940139B2, “Compounds that interact with the Ras superfamily for the treatment of cancers, inflammatory diseases, rasopathies, and fibrotic disease” (Shy Therapeutics LLC, priority 2017, dated 2021).

The compounds below were run on MIA-PACA2 pancreatic cancer cell lines (assay: Cell proliferation assay (CellTiter 96 AQueous One)). Conditions: Homo sapiens, MIA PaCa-2; MIA-PACA2, same assay as the % inhibition (standard conditions).
Type: cell-based
Work on `COc1ccnc(-c2nc(O)c3ccsc3n2)c1` [drawing 1631] yielded an IC50 of 100 to 500 nM. In the case of `COc1cccc(N2CCN(C(=O)c3csc4c(O)nc(-c5ccccn5)nc34)CC2)c1` [drawing 1632], the IC50 is reported as 100 to 500 nM. For `COc1ccnc(-c2nc(O)c3c(Br)csc3n2)c1` [drawing 1637], the IC50 was 100 to 500 nM. Work on `CC1CN(c2ccccc2)CCN1C(=O)c1csc2c(O)nc(-c3ccccn3)nc12` (stereo not drawn) [drawing 1654] yielded an IC50 of 501 to 1000 nM.

Same assay, conditions: Homo sapiens, MIA PaCa-2; at 30 μM, MIA-PACA2
`Cc1sc2nc(N)nc(O)c2c1C` [drawing 1630] was tested, and the inhibition at 30 µM was 1 to 25%. In the case of `COc1ccnc(-c2nc(O)c3ccsc3n2)c1` [drawing 1631], the inhibition at 30 µM is reported as 76 to 100%. `COc1cccc(N2CCN(C(=O)c3csc4c(O)nc(-c5ccccn5)nc34)CC2)c1` [drawing 1632] was tested, and the inhibition at 30 µM was 76 to 100%. `Cc1ccccc1N1CCN(C(=O)c2csc3c(O)nc(-c4ccccn4)nc23)CC1` [drawing 1633] gave an inhibition at 30 µM of 76 to 100%. `O=C(c1csc2c(O)nc(-c3ccccn3)nc12)N1CCN(Cc2cccc(O)c2)CC1` [drawing 1634] was tested, and the inhibition at 30 µM was 76 to 100%. For `O=C(c1csc2c(O)nc(-c3ccccn3)nc12)N1CCOC(c2cccc(F)c2)C1` (stereo not drawn) [drawing 1635], the inhibition at 30 µM was 76 to 100%. `O=C(c1csc2c(O)nc(-c3ccccn3)nc12)N1CCOC(c2nccs2)C1` (stereo not drawn) [drawing 1636] gave an inhibition at 30 µM of 76 to 100%. `COc1ccnc(-c2nc(O)c3c(Br)csc3n2)c1` [drawing 1637] showed an inhibition at 30 µM of 76 to 100%. `O=C(NCCc1cccnc1)c1csc2nc(-c3ccccn3)nc(N3CCOCC3)c12` [drawing 1638] showed an inhibition at 30 µM of 76 to 100%. In the case of `COc1ccc(CCNC(=O)c2csc3nc(-c4ccccn4)nc(N4CCOCC4)c23)cn1` [drawing 1639], the inhibition at 30 µM is reported as 51 to 75%. In the case of `COc1ccc(CCN(C)C(=O)c2csc3nc(-c4ccccn4)nc(N4CCOCC4)c23)cn1` [drawing 1640], the inhibition at 30 µM is reported as 76 to 100%. `COc1cc(CCNC(=O)c2csc3nc(-c4ccccn4)nc(N4CCOCC4)c23)ccn1` [drawing 1641] gave an inhibition at 30 µM of 51 to 75%. `COc1ncc(CCNC(=O)c2csc3nc(-c4ccccn4)nc(N4CCOCC4)c23)cn1` [drawing 1642] showed an inhibition at 30 µM of 76 to 100%. For `O=C(NCCc1cncs1)c1csc2nc(-c3ccccn3)nc(N3CCOCC3)c12` [drawing 1643], the inhibition at 30 µM was 76 to 100%. In the case of `N#Cc1ccc(CCNC(=O)c2csc3nc(-c4ccccn4)nc(N4CCOCC4)c23)cc1` [drawing 1644], the inhibition at 30 µM is reported as 25 to 50%. `CC(C)(C(=O)Nc1ccnc(-c2ccccn2)n1)c1ccc(C#N)cc1` [drawing 1645] was tested, and the inhibition at 30 µM was 76 to 100%. Compound `CC(C)(C(=O)Nc1nc(-c2ccccn2)nc2sccc12)c1ccc(C#N)cc1` [drawing 1646] has an inhibition at 30 µM of 76 to 100%. `O=C(c1csc2c(O)nc(-c3ccccn3)nc12)N1CCN(c2cccc(F)c2)CC1` [drawing 1647] was tested, and the inhibition at 30 µM was 76 to 100%. `O=C(c1csc2c(O)nc(-c3ccccn3)nc12)N1CCN(c2ccc(F)cc2)CC1` [drawing 1648] gave an inhibition at 30 µM of 76 to 100%. Compound `N#Cc1cccc(N2CCN(C(=O)c3csc4c(O)nc(-c5ccccn5)nc34)CC2)c1` [drawing 1649] has an inhibition at 30 µM of 76 to 100%. `N#Cc1ccc(N2CCN(C(=O)c3csc4c(O)nc(-c5ccccn5)nc34)CC2)cc1` [drawing 1650] gave an inhibition at 30 µM of 25 to 50%. With `COc1cc(N2CCN(C(=O)c3csc4c(O)nc(-c5ccccn5)nc34)CC2)cc(OC)c1OC` [drawing 1651] the inhibition at 30 µM was 51 to 75%. For `COc1ccc(N2CCN(C(=O)c3csc4c(O)nc(-c5ccccn5)nc34)CC2)c(OC)c1` [drawing 1652], the inhibition at 30 µM was 76 to 100%. For `O=C(c1csc2c(O)nc(-c3ccccn3)nc12)N1CCN(c2ccc(F)cc2F)CC1` [drawing 1653], the inhibition at 30 µM was 76 to 100%. Work on `CC1CN(c2ccccc2)CCN1C(=O)c1csc2c(O)nc(-c3ccccn3)nc12` (stereo not drawn) [drawing 1654] yielded an inhibition at 30 µM of 76 to 100%. Work on `O=C(c1csc2c(O)nc(-c3ccccn3)nc12)N1CCN(Cc2ccccc2)CC1` [drawing 1655] yielded an inhibition at 30 µM of 76 to 100%. For `COc1cccc(CN2CCN(C(=O)c3csc4c(O)nc(-c5ccccn5)nc34)CC2)c1` [drawing 1656], the inhibition at 30 µM was 76 to 100%. Compound `O=C(c1csc2c(O)nc(-c3ccccn3)nc12)N1CCN(Cc2ccc(O)cc2)CC1` [drawing 1657] has an inhibition at 30 µM of 1 to 25%. In the case of `O=C(c1csc2c(O)nc(-c3ccccn3)nc12)N1CCN(Cc2ccc(O)c(Cl)c2)CC1` [drawing 1658], the inhibition at 30 µM is reported as 76 to 100%. Compound `O=C(c1csc2c(O)nc(-c3ccccn3)nc12)N1CCOC(c2ccccc2)C1` (stereo not drawn) [drawing 1659] has an inhibition at 30 µM of 76 to 100%. Work on `COc1ccccc1C1CN(C(=O)c2csc3c(O)nc(-c4ccccn4)nc23)CCO1` (stereo not drawn) [drawing 1660] yielded an inhibition at 30 µM of 76 to 100%. `COc1ccc(C2CN(C(=O)c3csc4c(O)nc(-c5ccccn5)nc34)CCO2)cc1` (stereo not drawn) [drawing 1661] showed an inhibition at 30 µM of 76 to 100%. For `O=C(c1csc2c(O)nc(-c3ccccn3)nc12)N1CCOC(c2ccccc2Cl)C1` (stereo not drawn) [drawing 1662], the inhibition at 30 µM was 76 to 100%. In the case of `O=C(c1csc2c(O)nc(-c3ccccn3)nc12)N1CCOC(c2cccc(Cl)c2)C1` (stereo not drawn) [drawing 1663], the inhibition at 30 µM is reported as 76 to 100%. Compound `O=C(c1csc2c(O)nc(-c3ccccn3)nc12)N1CCOC(Cc2ccccc2)C1` (stereo not drawn) [drawing 1664] has an inhibition at 30 µM of 76 to 100%. Compound `COc1ccccc1C1CN(C(=O)c2csc3c(O)nc(-c4ccccn4)nc23)CCN1` (stereo not drawn) [drawing 1665] has an inhibition at 30 µM of 76 to 100%. With `COc1cccc(C2CN(C(=O)c3csc4c(O)nc(-c5ccccn5)nc34)CCN2)c1` (stereo not drawn) [drawing 1666] the inhibition at 30 µM was 76 to 100%. For `COc1ccc(C2CN(C(=O)c3csc4c(O)nc(-c5ccccn5)nc34)CCN2)cc1` (stereo not drawn) [drawing 1667], the inhibition at 30 µM was 25 to 50%. Compound `Cc1ccccc1C1CN(C(=O)c2csc3c(O)nc(-c4ccccn4)nc23)CCN1` (stereo not drawn) [drawing 1668] has an inhibition at 30 µM of 76 to 100%. `O=C(c1csc2c(O)nc(-c3ccccn3)nc12)N1CCNC(c2ccccc2F)C1` (stereo not drawn) [drawing 1669] was tested, and the inhibition at 30 µM was 76 to 100%. `Cn1cc(C2CN(C(=O)c3csc4c(O)nc(-c5ccccn5)nc34)CCN2)cn1` (stereo not drawn) [drawing 1670] showed an inhibition at 30 µM of 1 to 25%. `O=C(c1csc2c(O)nc(-c3ccccn3)nc12)N1CCNC(Cc2ccccc2)C1` (stereo not drawn) [drawing 1671] was tested, and the inhibition at 30 µM was 76 to 100%. `O=C(NCCc1ccncc1)c1csc2nc(-c3ccccn3)nc(N3CCOCC3)c12` [drawing 1672] was tested, and the inhibition at 30 µM was 76 to 100%. `COc1ccncc1CCNC(=O)c1csc2nc(-c3ccccn3)nc(N3CCOCC3)c12` [drawing 1673] was tested, and the inhibition at 30 µM was 76 to 100%. With `COc1cc(CCN(C)C(=O)c2csc3nc(-c4ccccn4)nc(N4CCOCC4)c23)ccn1` [drawing 1674] the inhibition at 30 µM was 76 to 100%. `COc1ccnc(-c2nc(O)c3c(C#N)csc3n2)c1` [drawing 1675] showed an inhibition at 30 µM of 76 to 100%. `O=C(NCCc1ccnc(O)c1)c1csc2nc(-c3ccccn3)nc(N3CCOCC3)c12` [drawing 1676] gave an inhibition at 30 µM of 51 to 75%. `O=C(NCCc1cncnc1)c1csc2nc(-c3ccccn3)nc(N3CCOCC3)c12` [drawing 1677] was tested, and the inhibition at 30 µM was 76 to 100%. For `O=C(NCCc1ccc(O)c(O)c1)c1csc2nc(-c3ccccn3)nc(N3CCOCC3)c12` [drawing 1678], the inhibition at 30 µM was 76 to 100%. Work on `O=C(NCCc1nnn[nH]1)c1csc2nc(-c3ccccn3)nc(N3CCOCC3)c12` [drawing 1679] yielded an inhibition at 30 µM of 51 to 75%. For `N#Cc1cccc(CCNC(=O)c2csc3nc(-c4ccccn4)nc(N4CCOCC4)c23)c1` [drawing 1680], the inhibition at 30 µM was 76 to 100%. For `CN(CCc1cccc(C#N)c1)C(=O)c1csc2nc(-c3ccccn3)nc(N3CCOCC3)c12` [drawing 1681], the inhibition at 30 µM was 76 to 100%. Compound `COCCCCNC(=O)c1csc2nc(-c3ccccn3)nc(N3CCOCC3)c12` [drawing 1682] has an inhibition at 30 µM of 76 to 100%. For `COCCCCN(C)C(=O)c1csc2nc(-c3ccccn3)nc(N3CCOCC3)c12` [drawing 1683], the inhibition at 30 µM was 76 to 100%. With `CNS(=O)(=O)CCCNC(=O)c1csc2nc(-c3ccccn3)nc(N3CCOCC3)c12` [drawing 1684] the inhibition at 30 µM was 76 to 100%. `COCCN(CCOC)c1nc(-c2ccccn2)nc2scc(C(=O)NCCc3ccc(OC)nc3)c12` [drawing 1685] gave an inhibition at 30 µM of 76 to 100%.
